One molecule from PMC8619068, “Transformation of Tetracycline by Manganese Peroxidase from Phanerochaete chrysosporium” (Molecules, 2021) can be followed below.

This assay concerns T1, manganese peroxidase (MnP).
T1 construct: gene MNP1; native secreted enzyme purified from culture fluid (ultrafiltration, DEAE, Sephadex G-75); single band on SDS-PAGE
Kind of assay: HPLC-UV ([…] nm) of residual tetracycline; non-linear Michaelis-Menten fit. The note with it: MnSO4 0.1 mmol/L, H2O2 0.2 mmol/L, MnP 40 U/L, tartrate buffer 0.05 mol/L pH 4.5, 37 °C (general removal assay); oxidation mediated by Mn3+. In kind it is biochemical, Phanerodontia chrysosporium.

A word on the Km: it is the substrate concentration at which the rate is half of its maximum. In the case of `CN(C)[C@@H]1C(=O)C(C(N)=O)=C(O)[C@@]2(O)C(=O)C3=C(O)c4c(O)cccc4[C@@](C)(O)[C@H]3C[C@@H]12` [TC, tetracycline], the Km stood at 238.23 mg/L.
